Source: patent publication US8278338B2 (priority 2004, dated 2012)
pKi: −log10 of the molar value.

biological target: T1, human μ-opiate receptor (Homo sapiens, UniProt P35372); assay: Affinity for the human μ-opiate receptor, [3H]-naloxone displacement (SPA) on CHO-K1 receptor membrane preparation; assay type: binding; details: 1.5 h, read-out: μ-Opioid receptor affinity (% inhibition at 1 μmol./l), 1 μmol./l test substance; inhibition of specific [3H]-naloxone binding
T1 construct: purchased Perkin Elmer, Zaventem, Belgium RB-HOM; host or cells: CHO-K1 cells
Procedure: The receptor affinity for the human μ-opiate receptor was determined in a homogeneous batch on microtitre plates. To that end, serial dilutions of the substances to be tested were incubated for 90 minutes at room temperature with a receptor membrane preparation (15-40 μg of protein/250 μl of incubation batch) of CHO-K1 cells, which express the human μ-opiate receptor (RB-HOM receptor membrane preparation from Perkin Elmer, Zaventem, Belgium), in the presence of 1 nmol./l of the radioactive ligand [^3H]-naloxone (NET719, Perkin Elmer, Zaventem, Belgium) and 1 mg of WGA-SPA beads (wheatgerm agglutinin SPA beads from Amersham/Pharmacia, Freiburg, Germany) in a total volume of 250 μl. The incubation buffer used was 50 mmol./l of Tris-HCl supplemented with 50 μM MgCl2 and 0.05% bovine serum albumin. In order to determine non-specific binding, 100 μmol./l of naloxone were additionally added. When the ninety-minute incubation time was complete, the microtitre plates were centrifuged off for 20 minutes at 1000 g and the radioactivity was measured in a β-counter (Microbeta-Trilux, PerkinElmer, Freiburg, Germany). The percentage displacement of the radioactive ligand from its binding to the human μ-opiate receptor at a concentration of the test substances of 1 μmol./l was determined and stated as the percentage inhibition of specific binding. […] Ki values for the test substances were obtained by conversion by means of the Cheng-Prusoff equation (Cheng and Prusoff 1973).

T1 sequence (P35372 whole entry): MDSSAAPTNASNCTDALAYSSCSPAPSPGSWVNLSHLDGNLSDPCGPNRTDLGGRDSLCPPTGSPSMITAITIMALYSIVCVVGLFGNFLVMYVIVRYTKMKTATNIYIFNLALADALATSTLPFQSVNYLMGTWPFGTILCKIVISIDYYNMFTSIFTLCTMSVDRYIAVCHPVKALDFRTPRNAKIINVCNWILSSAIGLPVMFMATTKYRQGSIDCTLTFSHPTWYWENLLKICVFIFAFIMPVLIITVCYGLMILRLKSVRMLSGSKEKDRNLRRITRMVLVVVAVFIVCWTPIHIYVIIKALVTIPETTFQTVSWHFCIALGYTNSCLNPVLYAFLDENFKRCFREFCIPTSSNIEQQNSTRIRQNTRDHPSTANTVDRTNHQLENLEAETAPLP

Row | SMILES | inhibition at 1 µM
1 | CN(C)CC1Cc2cc(OC(F)(F)F)ccc2C1(O)c1cccnc1 (centres unmarked) [Example 20, 2-dimethylaminomethyl-1-pyridin-3-yl-5-trifluoromethoxy-indan-1-ol] | -19%
2 | CN(C)CC1=C(c2cccnc2)c2ccccc2OCC1 [Example 26, dimethyl-(5-pyridin-3-yl-2,3-dihydro-benzo[b]oxepin-4-ylmethyl)-amine] | 37%
3 | CN(C)CC1Cc2cc(C(F)(F)F)ccc2C1(O)c1cccnc1 (centres unmarked) [Example 22, 2-dimethylaminomethyl-1-pyridin-3-yl-5-trifluoromethyl-indan-1-ol] | 2%
4 | CN(C)CC1CCS(=O)(=O)c2ccccc2C1(O)c1cccnc1 (centres unmarked) [Example 17, 4-dimethylaminomethyl-1,1-dioxo-5-pyridin-3-yl-2,3,4,5-tetrahydro-1H-1λ6-benzo[b]thiepin-5-ol] | -13%
5 | CN(C)CC1Cc2cc(F)ccc2C1(O)c1cccnc1 (centres unmarked) [Example 18, 2-dimethylaminomethyl-5-fluoro-1-pyridin-3-yl-indan-1-ol] | -6%
6 | CN(C)CC1CCOc2ccccc2C1(O)c1cccnc1 (centres unmarked) [Example 24, 4-dimethylaminomethyl-5-pyridin-3-yl-2,3,4,5-tetrahydro-benzo[b]oxepin-5-ol] | 45%
7 | CN(C)CC1=C(c2cccnc2)c2ccc(C(F)(F)F)cc2C1 [Example 23, dimethyl-(3-pyridin-3-yl-6-trifluoromethyl-1H-inden-2-ylmethyl)-amine] | -8%
8 | CN(C)CC1CCCc2ccccc2C1(O)c1cccnc1 (centres unmarked) [Example 11, 6-dimethylaminomethyl-5-pyridin-3-yl-6,7,8,9-tetrahydro-5H-benzocyclohepten-5-ol] | 20%
9 | CN(C)CC1=C(c2cccnc2)c2ccc(OC(F)(F)F)cc2C1 [Example 21, dimethyl-(3-pyridin-3-yl-6-trifluoromethoxy-1H-inden-2-ylmethyl)-amine] | 5%

same assay, conditions: Cheng-Prusoff from IC50; [3H]-naloxone 1 nmol./l; read-out: μ-Opioid receptor affinity, Ki

Row | SMILES | pKi
10 | COc1cccc2c1CCC(CN(C)C)=C2c1cccnc1 [Example 38, (5-methoxy-1-pyridin-3-yl-3,4-dihydro-naphthalen-2-ylmethyl)-dimethyl-amine] | 6.34
11 | CN(C)CC1=C(c2cccnc2)c2ccccc2[S+]([O-])CC1 (centres unmarked) [Example 16, dimethyl-(1-oxo-5-pyridin-3-yl-2,3-dihydro-1H-1λ4-benzo[b]thiepin-4-ylmethyl)-amine] | 6.68

biological target: 5-HT reuptake (Rattus norvegicus, UniProt P31652); assay: biochemical; details: not given
Source text: In order to be able to carry out these in vitro studies, synaptosomes were freshly isolated from areas of rat brain. […] For NA reuptake, these vesicular particles were isolated from the hypothalamus of male rat brains, and for 5HT reuptake, they were isolated from the medulla+pons region.
The IC50 values were obtained with the aid of the “Figure P” computer program (Version 6.0, Biosoft, Cambridge, England). […] The “Ligand” computer program (Version 4, Biosoft, England) was used to show KD values.

5-HT reuptake, sequence (P31652 whole entry): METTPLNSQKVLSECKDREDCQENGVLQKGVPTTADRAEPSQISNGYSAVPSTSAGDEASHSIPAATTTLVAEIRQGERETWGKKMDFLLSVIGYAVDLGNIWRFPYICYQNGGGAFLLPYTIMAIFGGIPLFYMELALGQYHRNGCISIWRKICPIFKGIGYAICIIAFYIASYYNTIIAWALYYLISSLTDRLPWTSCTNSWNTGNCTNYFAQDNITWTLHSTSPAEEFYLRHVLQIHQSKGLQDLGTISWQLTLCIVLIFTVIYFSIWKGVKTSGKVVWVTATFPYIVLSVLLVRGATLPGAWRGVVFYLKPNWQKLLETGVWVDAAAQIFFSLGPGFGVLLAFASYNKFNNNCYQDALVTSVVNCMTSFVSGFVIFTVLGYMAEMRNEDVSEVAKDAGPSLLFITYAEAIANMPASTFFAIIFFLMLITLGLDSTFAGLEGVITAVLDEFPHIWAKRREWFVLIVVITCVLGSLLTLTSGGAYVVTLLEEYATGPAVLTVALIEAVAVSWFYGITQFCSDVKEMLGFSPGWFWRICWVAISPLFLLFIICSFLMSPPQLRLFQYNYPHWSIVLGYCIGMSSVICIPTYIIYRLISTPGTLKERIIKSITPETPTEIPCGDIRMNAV

Row | SMILES | pKi
12 | CN(C)CC1CCCc2ccccc2C1(O)c1cccnc1 (centres unmarked) [Example 11, 6-dimethylaminomethyl-5-pyridin-3-yl-6,7,8,9-tetrahydro-5H-benzocyclohepten-5-ol] | 7.55

same assay, conditions: rat synaptosomes; Cheng-Prusoff

Row | SMILES | pKi
13 | COc1cccc2c1CCC(CN(C)C)=C2c1cccnc1 [Example 38, (5-methoxy-1-pyridin-3-yl-3,4-dihydro-naphthalen-2-ylmethyl)-dimethyl-amine] | 6.43
14 | CN(C)CC1=C(c2cccnc2)c2ccc(OC(F)(F)F)cc2C1 [Example 21, dimethyl-(3-pyridin-3-yl-6-trifluoromethoxy-1H-inden-2-ylmethyl)-amine] | 6.37

same assay, conditions: read-out: Inhibition of 5-HT reuptake (% inhibition at 10 μmol./l), 10 μmol./l; rat synaptosomes

Row | SMILES | inhibition at 10 µM
15 | CN(C)CC1Cc2cc(OC(F)(F)F)ccc2C1(O)c1cccnc1 (centres unmarked) [Example 20, 2-dimethylaminomethyl-1-pyridin-3-yl-5-trifluoromethoxy-indan-1-ol] | 71%
16 | CN(C)CC1=C(c2cccnc2)c2ccccc2OCC1 [Example 26, dimethyl-(5-pyridin-3-yl-2,3-dihydro-benzo[b]oxepin-4-ylmethyl)-amine] | 50%
17 | CN(C)CC1Cc2cc(C(F)(F)F)ccc2C1(O)c1cccnc1 (centres unmarked) [Example 22, 2-dimethylaminomethyl-1-pyridin-3-yl-5-trifluoromethyl-indan-1-ol] | 61%
18 | CN(C)CC1CCS(=O)(=O)c2ccccc2C1(O)c1cccnc1 (centres unmarked) [Example 17, 4-dimethylaminomethyl-1,1-dioxo-5-pyridin-3-yl-2,3,4,5-tetrahydro-1H-1λ6-benzo[b]thiepin-5-ol] | 57%
19 | CN(C)CC1Cc2cc(F)ccc2C1(O)c1cccnc1 (centres unmarked) [Example 18, 2-dimethylaminomethyl-5-fluoro-1-pyridin-3-yl-indan-1-ol] | 56%
20 | CN(C)CC1CCOc2ccccc2C1(O)c1cccnc1 (centres unmarked) [Example 24, 4-dimethylaminomethyl-5-pyridin-3-yl-2,3,4,5-tetrahydro-benzo[b]oxepin-5-ol] | 12%
21 | CN(C)CC1=C(c2cccnc2)c2ccccc2[S+]([O-])CC1 (centres unmarked) [Example 16, dimethyl-(1-oxo-5-pyridin-3-yl-2,3-dihydro-1H-1λ4-benzo[b]thiepin-4-ylmethyl)-amine] | 35%
22 | CN(C)CC1=C(c2cccnc2)c2ccc(C(F)(F)F)cc2C1 [Example 23, dimethyl-(3-pyridin-3-yl-6-trifluoromethyl-1H-inden-2-ylmethyl)-amine] | 47%
23 | CN(C)CC1CSc2ccccc2C1(O)c1cccnc1 (centres unmarked) [Example 31, 3-dimethylaminomethyl-4-pyridin-3-yl-thiochroman-4-ol] | -4%

biological target: T2, NA reuptake (Rattus norvegicus, UniProt Q63380); assay: Inhibition of NA reuptake in rat brain synaptosomes (hypothalamus, P2 fraction); assay type: biochemical; details: 10 μmol./l
T2 construct: isolated from the hypothalamus of male rat brains; from tissue; host or cells: rat brain synaptosomes (P2 fraction), hypothalamus of male rats
Procedure: In order to be able to carry out these in vitro studies, synaptosomes were freshly isolated from areas of rat brain. A so-called “P2” fraction was used in each case, which was prepared exactly according to the procedure of Gray, E. G. and Whittaker, V. P. (1962, J. Anat. […], 79-88). For NA reuptake, these vesicular particles were isolated from the hypothalamus of male rat brains, and for 5HT reuptake, they were isolated from the medulla+pons region.
IC50 values were obtained thereby which can be converted into inhibitor constants (Ki) according to the “Cheng-Prusoff equation” (Cheng, Y. C. and Prusoff, W. H., 1973, Biochem. Pharmacol. 22, 3099-3108). The IC50 values were obtained with the aid of the “Figure P” computer program (Version 6.0, Biosoft, Cambridge, England). Km values were calculated according to Lineweaver, H. and Burk, D. (1934, J. Am. Chem. Soc. 56, 658-666). The “Ligand” computer program (Version 4, Biosoft, England) was used to show KD values.

T2 sequence (Q63380 1-617): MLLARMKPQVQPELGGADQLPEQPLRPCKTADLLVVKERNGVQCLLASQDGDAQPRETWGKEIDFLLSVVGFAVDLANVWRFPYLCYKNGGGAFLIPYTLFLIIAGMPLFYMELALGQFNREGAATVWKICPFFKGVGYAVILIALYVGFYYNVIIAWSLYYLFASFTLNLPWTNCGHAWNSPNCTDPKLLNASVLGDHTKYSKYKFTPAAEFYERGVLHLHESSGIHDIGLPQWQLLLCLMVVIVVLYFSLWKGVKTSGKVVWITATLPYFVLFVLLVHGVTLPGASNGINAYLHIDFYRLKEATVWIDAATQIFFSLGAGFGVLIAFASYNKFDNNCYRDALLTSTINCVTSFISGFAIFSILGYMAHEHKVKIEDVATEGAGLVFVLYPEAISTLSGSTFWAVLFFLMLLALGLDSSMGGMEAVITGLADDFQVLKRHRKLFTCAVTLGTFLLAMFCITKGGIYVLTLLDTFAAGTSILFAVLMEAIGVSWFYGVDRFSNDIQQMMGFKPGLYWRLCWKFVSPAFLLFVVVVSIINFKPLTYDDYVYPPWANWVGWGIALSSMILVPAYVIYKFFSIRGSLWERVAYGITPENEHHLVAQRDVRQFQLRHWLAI

Row | SMILES | inhibition at 10 µM
24 | CN(C)CC1Cc2cc(OC(F)(F)F)ccc2C1(O)c1cccnc1 (centres unmarked) [Example 20, 2-dimethylaminomethyl-1-pyridin-3-yl-5-trifluoromethoxy-indan-1-ol] | 38%
25 | CN(C)CC1=C(c2cccnc2)c2ccccc2OCC1 [Example 26, dimethyl-(5-pyridin-3-yl-2,3-dihydro-benzo[b]oxepin-4-ylmethyl)-amine] | 9%
26 | CN(C)CC1Cc2cc(C(F)(F)F)ccc2C1(O)c1cccnc1 (centres unmarked) [Example 22, 2-dimethylaminomethyl-1-pyridin-3-yl-5-trifluoromethyl-indan-1-ol] | 17%
27 | CN(C)CC1CCS(=O)(=O)c2ccccc2C1(O)c1cccnc1 (centres unmarked) [Example 17, 4-dimethylaminomethyl-1,1-dioxo-5-pyridin-3-yl-2,3,4,5-tetrahydro-1H-1λ6-benzo[b]thiepin-5-ol] | 19%
28 | CN(C)CC1Cc2cc(F)ccc2C1(O)c1cccnc1 (centres unmarked) [Example 18, 2-dimethylaminomethyl-5-fluoro-1-pyridin-3-yl-indan-1-ol] | 29%
29 | CN(C)CC1CCOc2ccccc2C1(O)c1cccnc1 (centres unmarked) [Example 24, 4-dimethylaminomethyl-5-pyridin-3-yl-2,3,4,5-tetrahydro-benzo[b]oxepin-5-ol] | 9%
30 | COc1cccc2c1CCC(CN(C)C)=C2c1cccnc1 [Example 38, (5-methoxy-1-pyridin-3-yl-3,4-dihydro-naphthalen-2-ylmethyl)-dimethyl-amine] | 34%
31 | CN(C)CC1=C(c2cccnc2)c2ccccc2[S+]([O-])CC1 (centres unmarked) [Example 16, dimethyl-(1-oxo-5-pyridin-3-yl-2,3-dihydro-1H-1λ4-benzo[b]thiepin-4-ylmethyl)-amine] | -2%
32 | CN(C)CC1=C(c2cccnc2)c2ccc(C(F)(F)F)cc2C1 [Example 23, dimethyl-(3-pyridin-3-yl-6-trifluoromethyl-1H-inden-2-ylmethyl)-amine] | 6%
33 | CN(C)CC1CCCc2ccccc2C1(O)c1cccnc1 (centres unmarked) [Example 11, 6-dimethylaminomethyl-5-pyridin-3-yl-6,7,8,9-tetrahydro-5H-benzocyclohepten-5-ol] | 39%
34 | CN(C)CC1CSc2ccccc2C1(O)c1cccnc1 (centres unmarked) [Example 31, 3-dimethylaminomethyl-4-pyridin-3-yl-thiochroman-4-ol] | 48%
35 | CN(C)CC1=C(c2cccnc2)c2ccc(OC(F)(F)F)cc2C1 [Example 21, dimethyl-(3-pyridin-3-yl-6-trifluoromethoxy-1H-inden-2-ylmethyl)-amine] | 14%
